Measured values published in US7019034B2, “Compositions and methods for reducing serum glucose and triglyceride levels in diabetic mammals” (Allergan, Inc., priority 2003, dated 2006).

Legend:
young db/db mice = assay: serum thyroxine (T4) in young db/db mice, 14 days oral dosing; type: in vivo
Protocol: In another study the efficacy of RXR agonists in the prevention of diabetes was tested in young db/db mice. […] Serum samples were analyzed by using commercially available kits from Boehring Manheim for their thyroxine (T4) levels in a Boehringer Manheim Hatachi Clinical Chemistry Analyzer as described in the reference manual of Boehringer Mannheim Corporation, 9115 Hague Road, Indianapolis, Ind., USA, expressly incorporated herein.

RXRα = target: T1, RXRα (Homo sapiens, UniProt P19793); assay: holoreceptor transactivation assay, RXRα; type: cell-based; settings: number in brackets
T1 construct: expressed in transfected cells
T1 sequence (P19793 1-462): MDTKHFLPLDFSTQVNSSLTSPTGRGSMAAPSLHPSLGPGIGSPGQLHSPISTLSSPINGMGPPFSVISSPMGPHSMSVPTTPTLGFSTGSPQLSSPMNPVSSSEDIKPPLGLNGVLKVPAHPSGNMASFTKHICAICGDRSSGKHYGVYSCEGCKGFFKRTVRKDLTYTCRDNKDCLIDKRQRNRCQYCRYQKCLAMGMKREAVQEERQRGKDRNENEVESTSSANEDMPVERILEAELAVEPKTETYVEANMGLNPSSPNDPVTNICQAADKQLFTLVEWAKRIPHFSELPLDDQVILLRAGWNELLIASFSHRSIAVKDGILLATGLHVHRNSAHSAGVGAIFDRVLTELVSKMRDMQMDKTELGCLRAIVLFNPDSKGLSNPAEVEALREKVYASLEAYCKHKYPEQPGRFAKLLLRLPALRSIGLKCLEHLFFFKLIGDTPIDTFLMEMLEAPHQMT
Source text: A holoreceptor transactivation assay and a ligand binding assay which measure the antagonist/agonist like activity of the compounds of the invention, or their ability to bind to the several retinoid receptor subtypes, respectively, are described in published PCT Application No. WO WO93/11755 (particularly on pages 30–33 and 37–41) published on Jun. 24, 1993, the specification of which is also incorporated herein by reference. […] The results obtained in this assay are expressed in EC50 numbers, as they are also in the chimeric receptor transactivation assay. The results of the ligand binding assay are expressed in Ki numbers. (See Cheng et al. Biochemical Pharmacology Vol. 22 pp 3099–3108, expressly incorporated herein by reference.)
(§1) Particularly, the transactivation data pertaining to activation of the RAR receptors were obtained in the chimeric assay, and the transactivation data pertaining to the activation of RXR receptors were obtained in the holoreceptor assay.
(§2) In Table 1 NA stands for not active at all as an agonist. ND stands for not determined. The first row of numbers pertaining to each compound is the measured EC50 number. […] The third row of numbers pertaining to each compound is the binding Ki number.

diabetic db/db mice [1] = assay: serum glucose in diabetic db/db mice, 7 days oral dosing; type: in vivo; settings: for Glucose: 10 mg/kg once daily oral gavage, mean +/- SD
Protocol: (§3) Effects of RXR agonists on serum glucose and triglyceride were studied in diabetic db/db mice. […] Briefly, animals were dosed once daily by oral gavage using corn oil vehicle for a period of 7 consecutive days. Serum samples were collected on day 1 (first day of dosing) and day 7 at hour 0 (immediately prior to dosing) and hour 3 (approximately 3 hours after dosing). Serum glucose and triglyceride levels of these samples were measured as described in the reference manuals: Glucose/HK. Boehringer Mannheim Corporation, 9115 Hague Road, Indianapolis, Ind., USA and Triglycerides/GPO. Roche Diagnostics Corporation, 9115 Hague Road, Indianapolis, Ind., USA, expressly incorporated herein. Only those animals with glucose levels of higher than 300 mg/dl at 0 hour on day 1 were considered as diabetic and included in data analysis.
(§4) A measured amount of dosing solution was withdrawn into a metal feeding tube attached to a marked syringe. Animals were restrained by grasping of their back skin while the feeding tube was gently inserted into their mouth and into esophagus. A fixed amount of the dosing solution was displaced into the esophagus/stomach of the animal by pushing the plunger of the syringe. Serum samples were collected from the retro-orbital sinus while the animals were anesthetized. These samples were analyzed by using commercially available kits from Boehringer Manheim for their glucose levels and Roche Diagnostics for their triglyceride levels in a Boehringer Manheim Hatachi Clinical Chemistry Analyzer.
(§5) For glucose assay, an enzymatic reaction using hexokinase and glucose-6-phosphodehydrogenase to catalyze glucose to gluconate-6phosphate and NADPH was employed. The amount of NADPH formed during these reactions was equivalent to the amount of glucose in the serum and was measured with a spectrophotometer. For triglycerides, a series of enzymatic reactions which included lipase, glycerol kinase and glycerol phosphate oxidase to formed dihydroacetone phosphate and peroxidase. The peroxidase produced catalyzed a reaction between peroxide and 4-aminophenazone and 4-chlorophenol in a Trinder reaction to generate a color change. This color change was measured by a spectrophotometer and reflected the amount of triglyceride in the sample.

RXRβ = target: T2, RXRβ (UniProt P28704); assay: holoreceptor transactivation assay, RXRβ; type: cell-based
T2 sequence (P28704 1-520): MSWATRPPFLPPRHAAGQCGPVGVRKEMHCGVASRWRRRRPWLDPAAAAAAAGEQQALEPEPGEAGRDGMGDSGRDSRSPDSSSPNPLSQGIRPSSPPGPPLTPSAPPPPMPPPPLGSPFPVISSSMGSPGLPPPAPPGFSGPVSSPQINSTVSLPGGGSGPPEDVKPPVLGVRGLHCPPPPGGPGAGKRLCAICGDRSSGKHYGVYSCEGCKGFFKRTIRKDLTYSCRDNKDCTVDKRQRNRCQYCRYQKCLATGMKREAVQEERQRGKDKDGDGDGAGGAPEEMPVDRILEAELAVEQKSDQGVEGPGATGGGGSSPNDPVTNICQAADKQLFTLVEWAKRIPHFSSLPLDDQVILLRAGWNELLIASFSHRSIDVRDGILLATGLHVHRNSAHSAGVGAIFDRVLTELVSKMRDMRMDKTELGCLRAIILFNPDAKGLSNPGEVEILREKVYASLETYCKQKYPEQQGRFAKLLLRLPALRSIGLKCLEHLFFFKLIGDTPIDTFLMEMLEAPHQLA
Source text: The results obtained in this assay are expressed in EC50 numbers, as they are also in the chimeric receptor transactivation assay. The results of the ligand binding assay are expressed in Ki numbers.
as §1, §2

diabetic db/db mice [2] = assay: serum triglycerides in diabetic db/db mice, 7 days oral dosing; type: in vivo; settings: for Triglycerides: 10 mg/kg once daily oral gavage, mean +/- SD
Protocol: as §3, §4, §5

[3] = Day 1, 0 hr (immediately prior to dosing)

Serum thyroxine (young db/db mice; 5 mg/kg orally for 14 days, mean +/- SD (n = 7)): 0.83 ± 0.29 µg/dL | effect on serum T4 (in words) (young db/db mice; mouse, in vivo): lowering serum T4 | RXR α efficacy in percentage as compared to the standard compound (RXRα): 100% | RXR β efficacy in percentage as compared to the standard compound (RXRβ): 0.4(100)1% | effect on serum triglyceride (in words) (diabetic db/db mice [2]; mouse, in vivo): induces hypertriglyceridemia
SMILES: CC(/C=C/[C@@H]1C[C@]1(C)c1ccc2c(c1)C(C)(C)CCC2(C)C)=C\C(=O)O [Standard compound, (2E,4E,1′S,2′S)-3-methyl-5-[2′-methyl-2′-(5,5,8,8-tetramethyl-5,6,7,8-tetrahydro-naphthalen-2-yl)-cyclopropyl]-penta-2,4-dienoic acid, reference compound]
Glucose (diabetic db/db mice [1]; [3]): 501 ± 87 mg/dL | Glucose (diabetic db/db mice [1]; Day 1, 3 hr): 403 ± 86 mg/dL | Glucose (diabetic db/db mice [1]; Day 7, 0 hr): 367 ± 101 mg/dL | Glucose (diabetic db/db mice [1]; Day 7, 3 hr): 301 ± 40 mg/dL | effect on serum glucose in diabetic mouse (in words) (diabetic db/db mice [1]; mouse, in vivo): capable of lowering serum glucose | efficacy in activating RXRβ compared with RXRα and RXRγ subtypes (in words) (RXRβ): approximately equally efficacious in activating the RXRα, RXRβ and RXRγ subtypes | Triglycerides (diabetic db/db mice [2]; [3]): 183 ± 50 mg/dL | Triglycerides (diabetic db/db mice [2]; Day 1, 3 hr): 220 ± 87 mg/dL | Triglycerides (diabetic db/db mice [2]; Day 7, 0 hr): 137 ± 32 mg/dL
